Assay results taken from patent US20240360153A1 (Regeneron Pharmaceuticals, Inc., priority 2023, published 2024).

Experiments:
[1] = system: S6K1 (Thr389) phosphorylation (mTORC1 activity) in FKBP12 knock-out 293T cells; assay: Inhibition of S6K1 (Thr389) phosphorylation in FKBP12 knock-out 293T cells (ELISA); format: cell-based, human; conditions: for inhibition at 10 µM: Homo sapiens, HEK-293T, 10 μM (highest tested concentration); for selectivity for FKBP12 compared with RAD001 (in words): wild-type versus FKBP12 knock-out cells
From the text: Example Generation of FKBP 12 knock-out cells. A CRISPR/Cas9 system was used to deliver ribonucleoprotein complexes containing guide RNA sequences that target FKBP12 (ac[…], location 1369062; ccactactcac[…], location 1369181) in HEK293T cells using Lipofectamine CRISPRMAX transfection reagent (Invitrogen CMAX00008). Cell clones were screened by immunoblotting with anti-FKBP-specific antibody (Novus, NB300-508). Single cells that were deficient for FKBP12 protein were selected and cloned.
(§1) Treatment of wild-type (WT) and FKBP12 knock-out 293T cells with RAD001 (everolimus) and test compounds. WT and FKBP12 knock-out 293T cells were cultured in Dulbecco's modified Eagle's medium (Gibco #11971-025) supplemented with 10% fetal bovine serum (Gibco #26140-079). Cells were plated at a density of 15,000 cells per well in poly-D-Lysine coated 96-well plates (Corning, #354461) and were incubated at 37° C., 5% CO2 for 24 hours until they reached ˜80% confluence. Cells were treated with RAD001 or test compounds reconstituted in dimethyl sulfoxide (DMSO) using a 8-11-point dose range, from 0.001 pM to 10 μM. All treatments were performed in duplicates for 2 hours at 37° C. Cell culture media supplemented with blank dimethyl sulfoxide (DMSO) was used as a negative control for all compounds. Phosphorylated amounts of S6K1 (Thr389) were measured using an ELISA kit (Invitrogen 85-86052-11), following the manufacture's protocol.
(§2) S6K1 is an immediate downstream target of mTORC1 and therefore phosphorylation of S6K1 at Thr389 residue is used to measure mTORC1 activity (PMID: 16968213). Amounts of phosphorylated S6K1 (Thr389) were measured in WT and FKBP12 knock-out 293T cells treated with either RAD001 or Compound 44 (FIGS. 1A and 1B), and Compound 45 (FIGS. 1C and 1D).

[2] = In vitro microsomal metabolic stability, CD-1 mouse liver microsomes; format: in vitro ADME; conditions: for microsomal CLint at 1 µM / CLint scaled at 1 µM: CD-1, mouse, mouse liver microsomes, pH 7.2; for half-life at 1 µM: CD-1, pH 7.2, 0.5 mg/ml protein, NADPH; for half-life at 1 µM / Remaining (T = 60 min) / Remaining (T = NCF60 min): Mouse liver microsomes; for Remaining (T = 60 min): with NADPH; for Remaining (T = NCF60 min): without NADPH regenerating system; for Remaining (T = 60 min) / Remaining (T = NCF60 min): 60 min
Description: (§3) Buffers: PBK Buffer: 50 mM potassium phosphate buffer (PPB), pH 7.2, with 3.3 mM Magnesium Chloride.
(§4) TA Intermediate solution: Compound or control (3 μL) diluted from stock solution (10 mM) with 297 μL 90.0% methanol/water. (Conc: 100 μM; 1.0% DMSO, 89.1% MeOH).
(§5) Control cocktail intermediate solution: Each control (3 μL) was diluted with 291 μL 90.0% methanol/water.
(§6) Diluted TA intermediate stock solution and PC control stock were made by transferring 80 μL of 100 μM TA stock solution into new tubes and then adding 720 μL of 1.0% DMSO in 50 mM potassium phosphate buffer (conc. 10 μM; 1.0% DMSO, 8.91% MeOH).
(§7) Preparation of Liver microsomes working solution (1.25×)(final Conc.: 0.5 mg/mL).
(§8) Acetonitrile:methanol (9:1, v/v)(including 200 ng/mL tolbutamide and 200 ng/ml labetalol hydrochloride as internal standards).
(§9) Working solution: Intermediate solution (80 μL) was diluted with 720 μL 1.0% DMSO in 50 mM potassium phosphate buffer (Conc.: 10 μM; 1.0% DMSO, 8.91% MeOH)
(§10) Procedure: Stock solution was added to each of the time point plates. Microsomes solution (360 μL/well), TA/PC (45 μL/well), and NADPH (45 μL/well) min. (Conc: 1.0 μM, 0.10% DMSO, 0.891% MeOH) were added to the incubation plates. To the T60 and NCF60 plate, TA (15 ul/well) and Microsomes (120 ul) were added. To the blank plate, microsome (50 ul/well) with stop solution (150 ul/well) were added. At the end of each time point, 50 ul/well was aliquoted from the incubation plate. The sampling plates were shaken for approximately 10 min. on a shaker and the samples were centrifuged at 4000 rpm for 15 min. Supernatant (120 μL) was transferred for LC/MS/MS.Compounds from Table 3 were incubated at 37° C. with liver microsomes (pooled from multiple donors) at 1 μM in the presence of a NADPH regenerating system at 0.5 mg/ml microsomal protein. Positive controls included testosterone (3A4 substrate), propafenone (2D6) and diclofenac (2C9), which were incubated with microsomes in the presence of an NADPH regenerating system. At time points (0, 5, 10, 20, 30 and 60 minutes), samples were removed and immediately mixed with cold acetonitrile containing the internal standard (IS). Test compounds incubated with microsomes without the NADPH regenerating system for 60 min are also included. A single point for each test condition (n=1) was obtained, and samples were analyzed by LC/MS/MS. Disappearance of the test compound was assessed based on peak area ratios of analyte/IS (no standard curve).

[3] = system: S6K1 (Thr389) phosphorylation (mTORC1 activity) in wild-type (WT) 293T cells; assay: Inhibition of S6K1 (Thr389) phosphorylation in wild-type 293T cells (ELISA); format: cell-based, human; conditions: for IC50: Homo sapiens, HEK-293T, 2 h, wild-type 293T cells, 2 hours treatment; for fold lower potency compared with RAD001 (by IC50) / extent of inhibition of S6K1 (Thr389) phosphorylation: wild-type cells; for extent of inhibition of S6K1 (Thr389) phosphorylation: with increasing concentrations
Description: as §1, §2

[4] = In vitro microsomal metabolic stability, human liver microsomes; format: in vitro ADME; conditions: for Remaining (T = 60 min) / Remaining (T = NCF60 min) / half-life at 1 µM: Human liver microsomes; for Remaining (T = 60 min): with NADPH; for Remaining (T = NCF60 min): without NADPH regenerating system; for Remaining (T = 60 min) / Remaining (T = NCF60 min): 60 min; for CLint scaled at 1 µM / microsomal CLint at 1 µM: human, human liver microsomes; for CLint scaled at 1 µM / microsomal CLint at 1 µM / half-life at 1 µM: pH 7.2; for half-life at 1 µM: 0.5 mg/ml protein, NADPH
Description: as §3, §4, §5, §6, §7, §8, §9, §10

| microsomal CLint at 1 µM [2] [µL/min/mg] | half-life at 1 µM [2] [min] | Remaining (T = 60 min) [2] [%] | Remaining (T = NCF60 min) [2] [%] | Remaining (T = 60 min) [4] [%] | Remaining (T = NCF60 min) [4] [%] | CLint scaled at 1 µM [4] [mL/min/kg] | microsomal CLint at 1 µM [4] [µL/min/mg] | half-life at 1 µM [4] [min] | CLint scaled at 1 µM [2] [mL/min/kg] | Structure (SMILES) | inhibition at 10 µM ([1]; FKBP12 knock-out cells) [%] | selectivity for FKBP12 compared with RAD001 (in words) [1] | IC50 [3] [nM] | fold lower potency compared with RAD001 (by IC50) [3] [fold] | extent of inhibition of S6K1 (Thr389) phosphorylation [3] | inhibition of S6K1 (Thr389) phosphorylation in the absence of FKBP12 (in words) ([1]; FKBP12 knock-out cells) | fold less potent compared with RAD001 ([1]; FKBP12 knock-out cells, at similar level of inhibition) [fold] | IC50 of inhibition of S6K1 (Thr389) ([1]; FKBP12 knock-out 293T cells) |
| --- | --- | --- | --- | --- | --- | --- | --- | --- | --- | --- | --- | --- | --- | --- | --- | --- | --- | --- |
| < 9.6 | > 145 | 89 | 112 | 18 | 99 | 54.7 | 60.8 | 22.8 |  | CO[C@@H]1C[C@H](C[C@@H](C)[C@@H]2CC[C@H](C)/C=C(\C)[C@@H](O)[C@@H](OC)C(=O)[C@H](C)C[C@H](C)/C=C/C=C/C=C(\C)C(Nc3cccc(C)c3)C[C@@H]3CC[C@@H](C)[C@@](O)(O3)C(=O)C(=O)N3CCCCC3C(=O)O2)CC[C@H]1O (stereo partly drawn) [Compound 50, (3S,6S,7E,9R,10R,12R,14S,15E,17E,19E,23S,26R,27R,34aS)-9,27-dihydroxy-3-((R)-1-((1S,3R,4R)-4-hydroxy-3-methoxycyclohexyl)propan-2-yl)-10-methoxy-6,8,12,14,20,26-hexamethyl-21-(m-tolylamino)-5,6,9,10,12,13,14,21,22,23,24,25,26,27,32,33,34,34a-octadecahydro-3H-23,27-epoxypyrido[2,1-c][1]oxa[4]azacyclohentriacontine-1,11,28,29(4H,31H)-tetraone] | 12 | selective to FKBP12 | 5.72 | 15 | near complete inhibition |  |  |  |
| 10.7 | 130 | 67 | 139 | 15 | 102 | 59.6 | 66.2 | 20.9 | 42.3 | CO[C@@H]1C[C@H](C[C@@H](C)[C@@H]2CC[C@H](C)/C=C(\C)[C@@H](O)[C@@H](OC)C(=O)[C@H](C)C[C@H](C)/C=C/C=C/C=C(\C)C(Nc3ccc(C)cc3)C[C@@H]3CC[C@@H](C)[C@@](O)(O3)C(=O)C(=O)N3CCCCC3C(=O)O2)CC[C@H]1O (stereo partly drawn) [Compound 49, (3S,6S,7E,9R,10R,12R,14S,15E,17E,19E,23S,26R,27R,34aS)-9,27-dihydroxy-3-((R)-1-((1S,3R,4R)-4-hydroxy-3-methoxycyclohexyl)propan-2-yl)-10-methoxy-6,8,12,14,20,26-hexamethyl-21-(p-tolylamino)-5,6,9,10,12,13,14,21,22,23,24,25,26,27,32,33,34,34a-octadecahydro-3H-23,27-epoxypyrido[2,1-c][1]oxa[4]azacyclohentriacontine-1,11,28,29(4H,31H)-tetraone] |  | relatively more selective to FKBP12 compared with RAD001 | 9.5 | 29 | near complete inhibition | did not inhibit S6K1 (Thr389)phosphorylation at any tested concentrations |  |  |
| 41 | 33.8 | 31 | 96 | 7.50 | 99 | 71.7 | 79.6 | 17.4 | 162 | COc1cccc(NC2C[C@@H]3CC[C@@H](C)[C@@](O)(O3)C(=O)C(=O)N3CCCCC3C(=O)O[C@H]([C@H](C)C[C@@H]3CC[C@@H](O)[C@H](OC)C3)CC[C@H](C)/C=C(\C)[C@@H](O)[C@@H](OC)C(=O)[C@H](C)C[C@H](C)/C=C/C=C/C=C/2C)c1 (stereo partly drawn) [Compound 44, (3S,6S,7E,9R,10R,12R,14S,15E,17E,19E,23S,26R,27R,34aS)-9,27-dihydroxy-3-((R)-1-((1S,3R,4R)-4-hydroxy-3-methoxycyclohexyl)propan-2-yl)-10-methoxy-21-((3-methoxyphenyl)amino)-6,8,12,14,20,26-hexamethyl-5,6,9,10,12,13,14,21,22,23,24,25,26,27,32,33,34,34a-octadecahydro-3H-23,27-epoxypyrido[2,1-c][1]oxa[4]azacyclohentriacontine-1,11,28,29(4H,31H)-tetraone] | ~30 | relatively more selective for FKBP12 compared to RAD001 | 11 | ~17 | completely inhibit | did not inhibit S6K1 phosphorylation at any tested concentration lower than 10 μM | ~100 |  |
| 16.6 | 83.5 | 59.40 | 106 | 19.40 | 84.00 | 47.5 | 52.8 | 26.3 | 65.7 | CO[C@@H]1CC(C[C@@H](C)[C@@H]2CC[C@H](C)/C=C(\C)[C@@H](O)[C@@H](OC)C(=O)[C@H](C)C[C@H](C)/C=C/C=C/C=C(\C)C(Nc3cncc(C)n3)CC3CC[C@@H](C)[C@@](O)(O3)C(=O)C(=O)N3CCCC[C@H]3C(=O)O2)CC[C@H]1O (stereo partly drawn) [Compound 28, (3S,6S,7E,9R,10R,12R,14S,15E,17E,19E,23S,26R,27R,34aS)-9,27-dihydroxy-3-((R)-1-((1S,3R,4R)-4-hydroxy-3-methoxycyclohexyl)propan-2-yl)-10-methoxy-6,8,12,14,20,26-hexamethyl-21-((6-methylpyrazin-2-yl)amino)-5,6,9,10,12,13,14,21,22,23,24,25,26,27,32,33,34,34a-octadecahydro-3H-23,27-epoxypyrido[2,1-c][1]oxa[4]azacyclohentriacontine-1,11,28,29(4H,31H)-tetraone] |  | not greater compared with RAD001 | 3 |  | complete inhibition | behaved in a similar fashion to RAD001 |  | not measurable/detectable |
